Legend:
[1] = tested on: bedstraw; experiment: Test B pre/postemergence bedstraw; type: in vivo, Galium aparine; details: Preemergence
Procedure, shortened: (§1)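 Test chemicals in a non-phytotoxic solvent mixture with surfactant were sprayed preemergence onto planted seeds and postemergence onto plants 2 to 18 cm tall (1- to 4-leaf stage). After twelve to sixteen days in a greenhouse, injury was visually rated against untreated controls from 0 (no effect) to 10 (complete control).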

[2] = tested on: blackgrass; experiment: Test B pre/postemergence blackgrass; type: in vivo, Alopecurus myosuroides
Procedure, shortened: as §1

[3] = tested on: surinam grass; experiment: Test B pre/postemergence surinam grass; type: in vivo, Brachiaria decumbens
Procedure, shortened: as §1

[4] = tested on: cocklebur; experiment: Test B pre/postemergence cocklebur; type: in vivo, Xanthium strumarium
Procedure, shortened: as §1

[5] = tested on: corn; experiment: Test B pre/postemergence corn; type: in vivo, Zea mays; details: for Corn plant response rating: scale of 0 to 10 where 0 is no effect and 10 is complete control
Procedure, shortened: as §1

[6] = tested on: morningglory; experiment: Test B pre/postemergence morningglory; type: in vivo, Ipomoea hederacea; details: for Morningglory plant response rating: scale of 0 to 10 where 0 is no effect and 10 is complete control
Procedure, shortened: as §1

[7] = tested on: pigweed; experiment: Test B pre/postemergence pigweed; type: in vivo, Amaranthus retroflexus; details: for Redroot pigweed plant response rating: scale of 0 to 10 where 0 is no effect and 10 is complete control
Procedure, shortened: as §1

[8] = tested on: rape; experiment: Test B pre/postemergence rape; type: in vivo, Brassica napus; details: for Rape plant response rating: scale of 0 to 10 where 0 is no effect and 10 is complete control
Procedure, shortened: as §1

[9] = tested on: soybean; experiment: Test B pre/postemergence soybean; type: in vivo, Glycine max; details: for Soybean plant response rating: scale of 0 to 10 where 0 is no effect and 10 is complete control
Procedure, shortened: as §1

[10] = tested on: sugar beet; experiment: Test B pre/postemergence sugar beet; type: in vivo, Beta vulgaris; details: for Sugarbeets plant response rating: scale of 0 to 10 where 0 is no effect and 10 is complete control
Procedure, shortened: as §1

[11] = tested on: velvetleaf; experiment: Test B pre/postemergence velvetleaf; type: in vivo, Abutilon theophrasti; details: for Velvetleaf plant response rating: scale of 0 to 10 where 0 is no effect and 10 is complete control
Procedure, shortened: as §1

[12] = tested on: wild oat; experiment: Test B pre/postemergence wild oat; type: in vivo, Avena fatua; details: for Wild oats plant response rating: scale of 0 to 10 where 0 is no effect and 10 is complete control
Procedure, shortened: as §1

[13] = tested on: purple nutsedge; experiment: Test B pre/postemergence purple nutsedge; type: in vivo, Cyperus rotundus; details: for Nutsedge plant response rating: scale of 0 to 10 where 0 is no effect and 10 is complete control
Procedure, shortened: as §1

[14] = tested on: rice; experiment: Test B flood test rice; type: in vivo, Oryza sativa; details: Pre-emergence
Procedure, shortened: (§2)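 Read-out is a visual response score from 0 (no effect) to 10 (complete control), assigned by comparison with untreated controls. Treatment was applied at the 2-leaf stage, and plants stayed in the greenhouse for twelve to sixteen days before scoring.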

[15] = tested on: smallflower flatsedge; experiment: Test B flood test smallflower flatsedge; type: in vivo, Cyperus difformis; details: Pre-emergence
Procedure, shortened: as §2

[16] = tested on: bamyardgrass; experiment: Test B flood test barnyardgrass; type: in vivo, Echinochloa crus-galli; details: Pre-emergence
Procedure, shortened: as §2

[17] = Postemergence, Rate 125 g/ha, scale 0 to 10, 0 is no effect, 10 is complete control
[18] = Preemergence, Rate 62 g/ha, scale 0 to 10 (0 no effect, 10 complete control)
[19] = Preemergence, Rate 250 g/ha, scale of 0 to 10 where 0 is no effect and 10 is complete control
[20] = Preemergence, Rate 500 g/ha, scale of 0 to 10 where 0 is no effect and 10 is complete control
[21] = Rate 62 g/ha, Postemergence, scale of 0 to 10 where 0 is no effect and 10 is complete control
[22] = Rate 250 g/ha, Postemergence, scale of 0 to 10 where 0 is no effect and 10 is complete control
[23] = Rate 500 g/ha, Postemergence, scale 0 to 10, 0 no effect, 10 complete control
[24] = Rate 62 g/ha, flood test species, visual evaluation after twelve to sixteen days
[25] = Rate 125 g/ha, flood test species, scale 0 to 10 where 0 is no effect and 10 is complete control
[26] = Rate 250 g/ha, flood-test species, scale 0 to 10, 0 is no effect, 10 is complete control
[27] = Rate 500 g/ha, flood test species, scale 0 to 10 (0 no effect, 10 complete control)

CCC(CC)n1c(=O)on(C(=O)N(c2ccc(F)cc2F)C(C)C)c1=O [Compound 353]
6: Plant response rating, Redroot pigweed [7, 23] | Plant response rating, Soybean [9, 23] | Plant response rating, Sugarbeets [10, 23] | Velvetleaf plant response rating ([11]; Preemergence, Rate 500 g/ha) | Wild oats plant response rating ([12]; Preemergence, Rate 500 g/ha)
2: Plant response rating, Blackgrass [2, 18] | B. signalgrass plant response rating (0 to 10 scale, 0 is no effect, 10 is complete control) ([3]; Preemergence, Rate 125 g/ha) | Redroot pigweed plant response rating ([7]; Rate 62 g/ha, Postemergence) | Plant response rating, Rape [8, 17] | Rape plant response rating ([8]; Rate 62 g/ha, Postemergence) | Sugarbeets plant response rating (0 to 10 scale) ([10]; Preemergence, Rate 125 g/ha) | Sugarbeets plant response rating ([10]; Preemergence, Rate 250 g/ha) | Plant response rating, Velvetleaf [11, 23] | Plant response rating, Wild oats [12, 23] | S. Flatsedge plant response rating [15, 25] | S. Flatsedge plant response rating [15, 26]
4: Plant response rating, Blackgrass [2, 17] | Plant response rating, Blackgrass [2, 22] | Plant response rating, Rape [8, 23] | Plant response rating, Soybean [9, 17] | Soybean plant response rating ([9]; Rate 62 g/ha, Postemergence) | Sugarbeets plant response rating ([10]; Preemergence, Rate 500 g/ha) | Velvetleaf plant response rating ([11]; Preemergence, Rate 250 g/ha) | Wild oats plant response rating ([12]; Preemergence, Rate 250 g/ha) | Rice plant response rating [14, 27]
7: Blackgrass plant response rating [2, 19] | Corn plant response rating ([5]; Preemergence, Rate 500 g/ha) | Plant response rating, Redroot pigweed [7, 18] | S. Flatsedge plant response rating [15, 27]
10: Plant response rating, Morningglory [6, 23] | Redroot pigweed plant response rating (0 to 10 scale) ([7]; Preemergence, Rate 125 g/ha) | Redroot pigweed plant response rating ([7]; Preemergence, Rate 250 g/ha) | Redroot pigweed plant response rating ([7]; Preemergence, Rate 500 g/ha)
5: B. signalgrass plant response rating [3, 19] | B. signalgrass plant response rating [3, 20] | Rape plant response rating ([8]; Preemergence, Rate 500 g/ha)
3: Bedstraw plant response rating ([1]; Rate 500 g/ha, scale of 0 to 10 where 0 is no effect and 10 is complete control) | Corn plant response rating (0 to 10 scale) ([5]; Preemergence, Rate 125 g/ha) | Corn plant response rating ([5]; Preemergence, Rate 250 g/ha) | Plant response rating, Morningglory [6, 17] | Morningglory plant response rating ([6]; Rate 62 g/ha, Postemergence) | Plant response rating, Redroot pigweed [7, 17]
0: Plant response rating, Bedstraw ([1]; Rate 62 g/ha, scale 0 to 10 (0 no effect, 10 complete control)) | Bedstraw plant response rating (0 to 10 scale) ([1]; Rate 125 g/ha) | Blackgrass plant response rating [2, 21] | Plant response rating, B. signalgrass [3, 17] | Plant response rating, B. signalgrass [3, 18] | B. signalgrass plant response rating [3, 21] | Plant response rating, B. signalgrass [3, 22] | Plant response rating, B. signalgrass [3, 23] | Plant response rating, Cocklebur [4, 17] | Plant response rating, Cocklebur [4, 18] | Cocklebur plant response rating (0 to 10 scale) ([4]; Preemergence, Rate 125 g/ha) | Cocklebur plant response rating [4, 21] | Plant response rating, Corn [5, 17] | Plant response rating, Corn [5, 18] | Corn plant response rating ([5]; Rate 62 g/ha, Postemergence) | Plant response rating, Corn [5, 23] | Plant response rating, Morningglory [6, 18] | Morningglory plant response rating (0 to 10 scale) ([6]; Preemergence, Rate 125 g/ha) | Plant response rating, Rape [8, 18] | Rape plant response rating (0 to 10 scale) ([8]; Preemergence, Rate 125 g/ha) | Plant response rating, Soybean [9, 18] | Soybean plant response rating (0 to 10 scale) ([9]; Preemergence, Rate 125 g/ha) | Soybean plant response rating ([9]; Preemergence, Rate 250 g/ha) | Soybean plant response rating ([9]; Preemergence, Rate 500 g/ha) | Plant response rating, Sugarbeets [10, 17] | Plant response rating, Sugarbeets [10, 18] | Sugarbeets plant response rating ([10]; Rate 62 g/ha, Postemergence) | Plant response rating, Velvetleaf [11, 17] | Plant response rating, Velvetleaf [11, 18] | Velvetleaf plant response rating ([11]; Rate 62 g/ha, Postemergence) | Plant response rating, Wild oats [12, 17] | Plant response rating, Wild oats [12, 18] | Wild oats plant response rating ([12]; Rate 62 g/ha, Postemergence) | Plant response rating, Nutsedge [13, 17] | Plant response rating, Nutsedge [13, 18] | Nutsedge plant response rating (0 to 10 scale) ([13]; Preemergence, Rate 125 g/ha) | Nutsedge plant response rating ([13]; Preemergence, Rate 250 g/ha) | Nutsedge plant response rating ([13]; Preemergence, Rate 500 g/ha) | Nutsedge plant response rating ([13]; Rate 62 g/ha, Postemergence) | Plant response rating, Nutsedge [13, 23] | Plant response rating, Rice (0 to 10 scale, 0 is no effect, 10 is complete control) [14, 24] | Rice plant response rating [14, 25] | Rice plant response rating [14, 26] | Plant response rating, S. Flatsedge (0 to 10 scale, 0 is no effect, 10 is complete control) [15, 24] | Plant response rating, Barnyardgrass (0 to 10 scale, 0 is no effect, 10 is complete control) [16, 24] | Barnyardgrass plant response rating [16, 25] | Barnyardgrass plant response rating [16, 26]
9: Plant response rating, Blackgrass [2, 23] | Barnyardgrass plant response rating [16, 27]
8: Blackgrass plant response rating [2, 20]
1: Plant response rating, Cocklebur [4, 23] | Morningglory plant response rating ([6]; Preemergence, Rate 250 g/ha) | Morningglory plant response rating ([6]; Preemergence, Rate 500 g/ha) | Rape plant response rating ([8]; Preemergence, Rate 250 g/ha) | Velvetleaf plant response rating (0 to 10 scale) ([11]; Preemergence, Rate 125 g/ha) | Wild oats plant response rating (0 to 10 scale) ([12]; Preemergence, Rate 125 g/ha)

From US6737383B1, “Herbicidal oxadiazolidines” (priority 1999, dated 2004)
